Patent US20120088807A1, “INTERLACED METHOD FOR TREATING CANCER OR A PRECANCEROUS CONDITION” (TAU THERAPEUTICS LLC, priority 2009, published 2012)

Tests used:
A10 cells = assay: Cell cycle analysis using flow cytometry and BUdR staining; format: cell-based
Procedure: Cell cycle analysis was performed using flow cytometry and BUdR staining. In FIG. 3, “Con” represents untreated, control cells. All other cell cultures were treated with nocodazole, which interferes with microtubule polymerization and blocks the cell cycle during M phase. […] Because A10 cells reside primarily in the cell cycle checkpoint between G0 and G1 (See “Con” in FIG. 3), evaluating the possibility that a pharmacologic agent inhibits transit out of that phase is not as straightforward as determining blockade at other cell cycle checkpoints. Therefore, cell cultures were treated for 24 hours with T channel calcium channel blockers mibefradil (mib), nickel (Ni) or TTL-1177 (a proprietary compound owned by the assignee Tau Therapeutics), before adding nocodazole. Absent an effect on the T channel blockers, cells would be locked at the cell cycle checkpoint between G2 and M by nocodazole as happened with cells treated with it alone.

PANC 219 tumor = format: in vivo; settings: mibefradil 65 mg/kg p.o. b.i.d.
Procedure: Pancreatic cancers resected from patients were immediately transplanted into the flanks of nude mice and maintained by serial, in vivo passage. Transplanted tumors were implanted at a volume of about 100 mm^3 and allowed to grow to 200 to 300 mm^3 before initiation of treatment. Mice bearing the PANC 219 tumor were either left untreated or treated with mibefradil at 65 mg/kg p.o. b.i.d. (n=10 in each group). Tumor growth was normalized to the size measured at the start of treatment.

D54 tumors [1] = assay: Interlaced therapy, human glioblastoma murine xenograft model, two cytotoxin rounds (Example 5); format: in vivo, Mice; settings: over 30 days; subcutaneous D54; temozolamide 25% then 10% of LD10; mibefradil 40 then 35 mg/kg p.o. q.i.d.
Procedure: Further studies of interlaced therapy for human glioblastoma in a murine xenograft model using the D54 cell line were conducted. Mice bearing subcutaneous implants of D54 tumors, which were allowed to become established, were treated with mibefradil at 40 mg/kg p.o. q.i.d. for 7 days or left untreated. On day seven, all animals received the S phase cytotoxin temozolamide at a dose of 25% of the LD10 over five days. Following two days of no treatment, mibefradil was re-started at a dose of 35 mg/kg p.o. q.i.d. in the group of mice which were originally treated with mibefradil.

D54 tumors [2] = assay: Interlaced therapy, human glioblastoma murine xenograft model (Example 4); format: in vivo, Mice
Procedure: Studies of interlaced therapy for human glioblastoma in a murine xenograft model using the D54 cell line were conducted. Mice bearing subcutaneous implants of D54 tumors, which were allowed to become established at a volume of about 100 mm^3, were treated with mibefradil at 40 mg/kg p.o. q.i.d. for 7 days or left untreated. On day seven, all animals received the S phase cytotoxin temozolamide at a dose of 25% of the LD10 over five days. Following two days of no treatment, mibefradil was re-started at a dose of 35 mg/kg p.o. q.i.d. in the group of mice which were originally treated with mibefradil. On day 20, the mean tumor volume in the temozolamide only group of mice was 173 mm^3 as compared to the temozolamide plus mibefradil group of mice, whose mean tumor volume was 102 mm^3 (p=0.0485; n=10/group; Student's pooled, two tailed t-test). A pooled, two tailed. Student's t-test over all seven tumor volume measurements yielded p=0.0329. There were no animals that were euthanized in either group due to tumor size. The mean volume in the control group, which received no intervention, was 1214 mm^3 with three animals euthanized because of tumor size.

[3] = A10 cells treated 24 hours with T channel blocker before adding nocodazole

COC(=O)Nc1nc2ccc(C(=O)c3cccs3)cc2[nH]1 [nocodazole]
effect on cell cycle transit (A10 cells; A10 cells, nocodazole alone): blocked cell cycle transit through M phase

COCC(=O)O[C@]1(CCN(C)CCCc2nc3ccccc3[nH]2)CCc2cc(F)ccc2[C@@H]1C(C)C [mibefradil]
effect on cell cycle transit (A10 cells; [3]): arrested cells at the cell cycle checkpoint between G0 and G1 | tumor regression (PANC 219 tumor; PANC 219 tumor in nude mice): did not cause tumor regression | tumor growth (PANC 219 tumor; PANC 219 tumor, growth normalized to size at start of treatment): controlled tumor growth | deaths in treatment group (PANC 219 tumor; n=10, day 9): One mouse in the treatment group died

Cn1nnc2c(C(N)=O)ncn2c1=O [temozolamide]
mean tumor volume (D54 tumors [1]): 156±65 mm^3 | mean tumor volume (D54 tumors [2]; day 20, subcutaneous D54, temozolamide 25% of LD10 over five days, mibefradil 40 then 35 mg/kg p.o. q.i.d., n=10/group): 173 mm^3 | animals euthanized due to tumor size (D54 tumors [2]; subcutaneous D54, n=10/group): no animals

[Ni] [nickel]
effect on cell cycle transit (A10 cells; [3]): arrested cells at the cell cycle checkpoint between G0 and G1
